Results from patent publication US6680373B2, “P2U2 receptor antibodies” (Millennium Pharmaceuticals, Inc., priority 1995, dated 2004).

Target: T1, P2U2 receptor (Homo sapiens, UniProt Q9BXA5)
T1 construct: The native human receptor was produced in oocytes by cloning the 500 bp 5′ truncation of the full-length kidney cDNA clone; expressed in transfected cells; host or cells: Xenopus laevis oocytes injected with capped in vitro transcribed RNA (pcDNA3 template, T7 polymerase)
T1 sequence (Q9BXA5 1-334): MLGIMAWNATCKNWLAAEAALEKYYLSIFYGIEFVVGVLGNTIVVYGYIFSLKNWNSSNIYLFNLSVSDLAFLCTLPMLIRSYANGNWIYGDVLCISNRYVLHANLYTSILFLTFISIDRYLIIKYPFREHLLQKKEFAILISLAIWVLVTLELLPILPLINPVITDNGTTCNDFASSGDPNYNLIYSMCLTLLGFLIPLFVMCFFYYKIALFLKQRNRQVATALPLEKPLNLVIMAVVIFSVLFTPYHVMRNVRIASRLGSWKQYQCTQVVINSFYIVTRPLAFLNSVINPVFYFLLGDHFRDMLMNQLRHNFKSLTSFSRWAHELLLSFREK
Experiment: Two-electrode voltage clamp of agonist-induced chloride currents in Xenopus oocytes injected with P2U2 receptor cRNA
Assay type: cell-based
Settings: receptor expressed in Xenopus oocytes; for order of specificity as agonists of the P2U2 receptor: potencies close in value, a mere five-fold difference
Procedure: As indicated above, receptor activation can also be measured by means of the two-electrode voltage clamp assay. In this assay, agonist-induced inward chloride currents are measured in voltage-clamped oocytes that express the P2U2 receptor. The technique suitable for use in the instant invention is described by Julius, et al, Science 241:558-563 (1988). The native human receptor was produced in oocytes by cloning the 500 bp 5' truncation of the full-length kidney cDNA clone into the mammalian expression vector pcDNA3 (Invitrogen). Linearized DNA was used as a template for T7 polymerase (Ambion, Promega) for generation of capped in vitro transcribed mRNA following the suppliers specifications. Adult female Xenopus laevis were anesthetized in […] 3-aminobenzoic acid ethyl ester for 10 minutes and 1 or 2 ovarian lobes were removed, followed by immediate suturing of the incisions. Oocytes were defolliculated at room temperature with collagenase (2 mg/ml) in Ca^+2-free medium (OR-2) for 1-2 hr. Oocytes were stored at […] in ND-96 (96 mM sodium chloride, 2 mM potassium chloride, 1.8 mM calcium chloride, 1 mM magnesium chloride, 5 mM HEPES (N[2-hydroxyethylpiperazine-N'[2-ethanesulfonic acid) with penicillin/streptomycin and injected with 50 nl RNA (1-2 μg/μl) 18-24 h after removal of the oocytes. Before recording, injected oocytes were stored at 18° C. for 2-3 days with daily media changes. A two-electrode voltage clamp (Axon Axoclamp2B) was used to measure agonist-induced currents from individual oocytes. Electrodes were pulled to […] of 0.2-1 MΩ and filled with 3M KCl. Recordings were made at room temperature in ND96 from oocytes clamped at -70 mV using different agonist concentrations. Water-injected oocytes were used as a control.

Row | activation of the P2U2 receptor | order of specificity as agonists of the P2U2 receptor | SMILES
1 | activated | UTP>UDP>ADP>ATP | Nc1ncnc2c1ncn2[C@@H]1O[C@H](COP(=O)(O)OP(=O)(O)OP(=O)(O)O)[C@@H](O)[C@H]1O [ATP]
2 | activated | UTP>UDP>ADP>ATP | O=c1ccn([C@@H]2O[C@H](COP(=O)(O)OP(=O)(O)O)[C@@H](O)[C@H]2O)c(=O)[nH]1 [UDP]
3 | activated | UTP>UDP>ADP>ATP | Nc1ncnc2c1ncn2[C@@H]1O[C@H](COP(=O)(O)OP(=O)(O)O)[C@@H](O)[C@H]1O [ADP]
4 | activated | UTP>UDP>ADP>ATP | O=c1ccn([C@@H]2O[C@H](COP(=O)(O)OP(=O)(O)OP(=O)(O)O)[C@@H](O)[C@H]2O)c(=O)[nH]1 [UTP]
